In patent US20120029187A1, “HALOALKYLSULFONANILIDE DERIVATIVE” (Nissan Chemical Industries, Ltd., priority 2009, published 2012):

What was measured:
Format in all cases: in vivo
Italian ryegrass [1] = test: Test Example 3: herbicidal effects in soil treatment; details: dose 6.3 g/a
How it was run: (§1)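 Seeds were sown in sterilized diluvial soil and covered with about 1.5 cm of soil. Compounds, formulated as emulsifiable concentrates and diluted with water, were sprayed evenly over the soil surface at set doses in g/a. Herbicidal effect was scored on a rating scale three weeks later.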

wild oat [2] = test: as above; details: dose 6.3 g/a
How it was run: as §1

barnyardgrass [3] = test: as above; details: dose 6.3 g/a
How it was run: as §1

common ragweed [4] = test: as above; details: dose 6.3 g/a
How it was run: as §1

water foxtail [5] = test: as above; details: dose 6.3 g/a
How it was run: as §1

common chickweed [6] = test: as above; details: dose 6.3 g/a
How it was run: as §1

common lambsquater [7] = test: as above; details: dose 6.3 g/a
How it was run: as §1

giant foxtail [8] = test: as above; details: dose 6.3 g/a
How it was run: as §1

redroot pigweed [9] = test: as above; details: dose 6.3 g/a
How it was run: as §1

large crabgrass [10] = test: as above; details: dose 6.3 g/a
How it was run: as §1

bulrush [11] = test: Test Example 1: herbicidal effects in preemergence treatment under submerged conditions; details: dose 2.52 g/a
How it was run: (§2)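 Flooded-paddy preemergence assay; EC diluted with water, surface-applied at weed seeding; doses g/a; rice transplanted at 2.5 leaves; 0–5 mortality score after 3 weeks.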

barnyardgrass [12] = test: as above; details: dose 2.52 g/a
How it was run: as §2

ducksalad [13] = test: as above; details: dose 2.52 g/a
How it was run: as §2

beadstraw = test: Test Example 4: herbicidal effect in foliage treatment; details: dose 6.3 g/a, three weeks after application
How it was run: (§3)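 Post-emergence foliar spray of water-diluted emulsifiable concentrate at predetermined doses (g per are), applied to plants 14 days after sowing in sterile diluvial soil (greenhouse, 25 to 30° C). Visual scale rating of effect taken 3 weeks later.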

Italian ryegrass [14] = test: as above; details: dose 6.3 g/a, three weeks after application
How it was run: as §3

wild oat [15] = test: as above; details: dose 6.3 g/a, three weeks after application
How it was run: as §3

barnyardgrass [16] = test: as above; details: dose 6.3 g/a, three weeks after application
How it was run: as §3

common ragweed [17] = test: as above; details: dose 6.3 g/a, three weeks after application
How it was run: as §3

water foxtail [18] = test: as above; details: dose 6.3 g/a, three weeks after application
How it was run: as §3

common chickweed [19] = test: as above; details: dose 6.3 g/a, three weeks after application
How it was run: as §3

common lambsquater [20] = test: as above; details: dose 6.3 g/a, three weeks after application
How it was run: as §3

giant foxtail [21] = test: as above; details: dose 6.3 g/a, three weeks after application
How it was run: as §3

redroot pigweed [22] = test: as above; details: dose 6.3 g/a, three weeks after application
How it was run: as §3

large crabgrass [23] = test: as above; details: dose 6.3 g/a, three weeks after application
How it was run: as §3

bulrush [24] = test: Test Example 2: herbicidal effects during the vegetation period under submerged conditions; details: treatment during the vegetation period under submerged conditions; dose 2.52 g/a
How it was run: (§4)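 Barnyardgrass, bulrush and ducksalad were co-sown in alluvial soil flooded to 4 cm and grown in a greenhouse at 25 to 30° C. At the 1- or 2-leaf stage, water-diluted emulsifiable concentrates went onto the water surface at set doses (g/a). Herbicidal effect was scored three weeks later on a graded scale.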

barnyardgrass [25] = test: as above; details: treatment during the vegetation period under submerged conditions; dose 2.52 g/a
How it was run: as §4

ducksalad [26] = test: as above; details: treatment during the vegetation period under submerged conditions; dose 2.52 g/a
How it was run: as §4

transplanted rice = test: Test Example 1: preemergence treatment under submerged conditions, effect on crop; details: dose 2.52 g/a
How it was run: as §2

CCOC(=O)N(c1ccccc1CN1COC(C)CC1=O)S(=O)(=O)C(F)(F)F (stereo not shown) [II-7]
H: Italian ryegrass, herbicidal effect (evaluation scale 0-5) (Italian ryegrass [1]): 2 (mortality of at least 20% and less than 40%)
F: wild oat, herbicidal effect (evaluation scale 0-5) (wild oat [2]): 2 (mortality of at least 20% and less than 40%)
A: barnyardgrass, herbicidal effect (evaluation scale 0-5) (barnyardgrass [3]): 5 (mortality of 90% or above (nearly complete death))
J: common ragweed, herbicidal effect (evaluation scale 0-5) (common ragweed [4]): 4 (mortality of at least 70% and less than 90%)
G: water foxtail, herbicidal effect (evaluation scale 0-5) (water foxtail [5]): 5 (mortality of 90% or above (nearly complete death))
N: common chickweed, herbicidal effect (evaluation scale 0-5) (common chickweed [6]): 4 (mortality of at least 70% and less than 90%)
L: common lambsquater, herbicidal effect (evaluation scale 0-5) (common lambsquater [7]): 5 (mortality of 90% or above (nearly complete death))
E: giant foxtail, herbicidal effect (evaluation scale 0-5) (giant foxtail [8]): 5 (mortality of 90% or above (nearly complete death))
K: redroot pigweed, herbicidal effect (evaluation scale 0-5) (redroot pigweed [9]): 0 (mortality of less than 5% (almost ineffective))
D: large crabgrass, herbicidal effect (evaluation scale 0-5) (large crabgrass [10]): 5 (mortality of 90% or above (nearly complete death))
B: bulrush, herbicidal effect (evaluation scale 0-5) (bulrush [11]): 5 (mortality of 90% or above (nearly complete death))
A: barnyardgrass, herbicidal effect (evaluation scale 0-5) (barnyardgrass [12]): 5 (mortality of 90% or above (nearly complete death))
C: ducksalad, herbicidal effect (evaluation scale 0-5) (ducksalad [13]): 5 (mortality of 90% or above (nearly complete death))
O: beadstraw, herbicidal effect (beadstraw): 3 (mortality of at least 40% and less than 70%)
H: Italian ryegrass, herbicidal effect (Italian ryegrass [14]): 3 (mortality of at least 40% and less than 70%)
F: wild oat, herbicidal effect (wild oat [15]): 0 (mortality of less than 5% (almost ineffective))
A: barnyardgrass, herbicidal effect (barnyardgrass [16]): 5 (mortality of 90% or above (nearly complete death))
J: common ragweed, herbicidal effect (common ragweed [17]): 5 (mortality of 90% or above (nearly complete death))
G: water foxtail, herbicidal effect (water foxtail [18]): 5 (mortality of 90% or above (nearly complete death))
N: common chickweed, herbicidal effect (common chickweed [19]): 2 (mortality of at least 20% and less than 40%)
L: common lambsquater, herbicidal effect (common lambsquater [20]): 5 (mortality of 90% or above (nearly complete death))
E: giant foxtail, herbicidal effect (giant foxtail [21]): 5 (mortality of 90% or above (nearly complete death))
K: redroot pigweed, herbicidal effect (redroot pigweed [22]): 0 (mortality of less than 5% (almost ineffective))
D: large crabgrass, herbicidal effect (large crabgrass [23]): 5 (mortality of 90% or above (nearly complete death))
B: bulrush, herbicidal effect (evaluation scale 0-5) (bulrush [24]): 5 (mortality of 90% or above (nearly complete death))
A: barnyardgrass, herbicidal effect (evaluation scale 0-5) (barnyardgrass [25]): 5 (mortality of 90% or above (nearly complete death))
C: ducksalad, herbicidal effect (evaluation scale 0-5) (ducksalad [26]): 4 (mortality of at least 70% and less than 90%)
a: transplanted rice, effect on crop (evaluation scale 0-5) (transplanted rice): 0 (mortality of less than 5% (almost ineffective))
